Legend:
insects and nematodes = settings: food and fodder crops; cited from earlier work
[1] = Dermal toxicity of granular compositions (Example 2, Table I); settings: rabbit, in vivo, topical or ocular, male albino rabbits, 24 h contact, 14 days observation, read-out: LD50 in mg/kg Body Weight
Source text: Dermal toxicity of granular compositions of the present invention as compared to conventional granular compositions containing the same pesticide, using male albino rabbits as test animal.
1. Five male albino rabbits weighing approximately 2.2 to 3.5 kilograms are selected for each dosage level. The hair is shaved from the entire trunk.
2. Saran tubing or "Vinylite" film, VU 1900, 12 inches wide, 0.04 millimeters thick and of suitable length to fit around the rabbit.
3. One felt cloth bandage measuring approximately 9×18 inches.
4. Four pieces of 11/2 inches adhesive tape approximately 14 inches long.
1. The granular composition to be tested is placed in the center of the plastic film and is moistened with water.
2. The rabbits underside is moistened with water and the animals placed belly down on the material. The plastic film is then bought up and around the animal and secured at each end with strips of adhesive tape.
3. The felt cloth is then placed under the belly and brought up and around the animal and secured to the body with the remaining two strips of adhesive tape.
1. The animal is placed on the plastic film and is wrapped and the film secured with adhesive tape.
2. The test material is then injected under the plastic with an appropriate size needle and syringe.
3. […]
By the above procedure the dermal toxicity of the granular compositions prepared in Example 1 is determined. […]

mammals = settings: ingestion, inhalation or dermal absorption; cited from earlier work

CCOP(=S)(OCC)SCSC(C)(C)C
control of a broad spectrum of insects and nematodes (insects and nematodes): highly effective | LD50 at 336 h [1]: 1 to 1.4 mg/kg | toxicity to mammals when introduced into the mammalian circulatory system (mammals): extremely toxic to mammals
